Reference: patent publication US9487477B2, “Crystalline phase of (3S,3S′) 4,4′-disulfanediylbis(3-aminobutane 1-sulfonic acid) with L-lysine” (Quantum Genomics, priority 2012, dated 2016)

Key:
Hygroscopicity = type: physicochemical
[1] = Differential scanning calorimetry (thermal stability); type: physicochemical; conditions: DSC from −20° C. up to 180° C., heating rate 5K/min
Description: FIG. 3: DSC pattern of ABSD.(L-lysine)2. Said experiment was performed from −20° C. up to 180° C., heating rate=5K/min.
The phase isolated, so called “ABSD L-lysinate”, was analyzed by DSC (FIG. 3). […] Said results further confirm that the crystalline form is anhydrous.

[2] = Karl Fischer titration (water content); type: physicochemical
From the text: A Karl Fischer titration is a classical titration method to determine the trace amounts of water in a sample. A Karl Fischer titration has confirmed the DSC analysis, by determining a water content of 0.06% inside the sample (i.e. very small amount of adsorbed water).

[3] = Solubility in water and other solvents; type: physicochemical
[4] = cited from earlier work
[5] = TGA-DSC analysis coupled to mass spectrometry (thermal behavior, loss of water); type: physicochemical; conditions: TGA-DSC from 30° C., heating rate 5K/Min
Description: A TGA-DSC analysis (coupled to mass spectrometry) was performed on this salt in order to observe its thermal behavior, and to determine its water content.
A TGA-DSC analysis (coupled to mass spectroscopy) was performed on this phase (FIG. 8).
A TGA-DSC analysis coupled to a Mass Spectroscopy (MS) was performed on this phase (FIG. 10).

## NCCCCC(N)C(=O)O (racemic) [DL-lysine, reference compound]
Hygroscopicity
  hygroscopicity: high hygroscopicity up to deliquescence

## NCCCC[C@H](N)C(=O)O.NCCCC[C@H](N)C(=O)O.N[C@@H](CCS(=O)(=O)O)CSSC[C@@H](N)CCS(=O)(=O)O [ABSD L-lysinate]
[1]
  thermal stability: no thermal phenomenon up to: up to 180 °C
[2]
  water content: 0.06%
[3]
  aqueous solubility compared to the ABSD trihydrate: higher
[3]; room temperature
  aqueous solubility compared to the ABSD zwitterionic form: higher
Hygroscopicity
  hygroscopy compared to the ABSD zwitterionic form: lower

## N[C@H](CCS(=O)(=O)O)CSSC[C@H](N)CCS(=O)(=O)O [ABSD zwitterion, (3S,3S′) 4,4′-disulfanediylbis(3-aminobutane 1-sulfonic acid)]
[4]; stored at circa 20° C. and RH>50%, WO 2012/045849
  time for the mixture of hydrated forms to evolve toward the trihydrate phase: less than two days

## N[C@@H](CCS(=O)(=O)[O-])CSSC[C@@H](N)CCS(=O)(=O)O.[Na+] [sodium hydrogen salt of ABSD]
[5]
  temperature of loss of water: circa 35 °C

## N[C@H](CCS(=O)(=O)O)CSSC[C@H](N)CCS(=O)(=O)O [trihydrate phase]
[4]; as described in WO 2012/045849
  temperature at which dehydration toward the dihydrate form starts: below 30 °C
